ChEMBL document CHEMBL4190351, “Synthesis and biological evaluation of novel 6,11-dihydro-5H-benzo[e]pyrimido- [5,4-b][1,4]diazepine derivatives as potential c-Met inhibitors” (Eur J Med Chem, 2017)

Experiments:
CAKI-1 [1] = experiment: Cytotoxicity in human Caki1 cells incubated for 72 hrs by sulforhodamine B assay; details: CAKI-1, 72 h
HepG2 = experiment: Cytotoxicity in human HepG2 cells incubated for 72 hrs by sulforhodamine B assay; details: HepG2, 72 h
PC-3 = experiment: Cytotoxicity in human PC3 cells incubated for 72 hrs by sulforhodamine B assay; details: PC-3, 72 h
PANC-1 = experiment: Cytotoxicity in human PANC1 cells incubated for 72 hrs by sulforhodamine B assay; details: PANC-1, 72 h
[2] = target: Hepatocyte growth factor receptor (Homo sapiens, UniProt P08581); experiment: Inhibition of cMet (unknown origin) using poly(Glu, Tyr)4:1 substrate and ATP incubated fro 60 mins by ELISA
Chain of Hepatocyte growth factor receptor (P08581 whole entry): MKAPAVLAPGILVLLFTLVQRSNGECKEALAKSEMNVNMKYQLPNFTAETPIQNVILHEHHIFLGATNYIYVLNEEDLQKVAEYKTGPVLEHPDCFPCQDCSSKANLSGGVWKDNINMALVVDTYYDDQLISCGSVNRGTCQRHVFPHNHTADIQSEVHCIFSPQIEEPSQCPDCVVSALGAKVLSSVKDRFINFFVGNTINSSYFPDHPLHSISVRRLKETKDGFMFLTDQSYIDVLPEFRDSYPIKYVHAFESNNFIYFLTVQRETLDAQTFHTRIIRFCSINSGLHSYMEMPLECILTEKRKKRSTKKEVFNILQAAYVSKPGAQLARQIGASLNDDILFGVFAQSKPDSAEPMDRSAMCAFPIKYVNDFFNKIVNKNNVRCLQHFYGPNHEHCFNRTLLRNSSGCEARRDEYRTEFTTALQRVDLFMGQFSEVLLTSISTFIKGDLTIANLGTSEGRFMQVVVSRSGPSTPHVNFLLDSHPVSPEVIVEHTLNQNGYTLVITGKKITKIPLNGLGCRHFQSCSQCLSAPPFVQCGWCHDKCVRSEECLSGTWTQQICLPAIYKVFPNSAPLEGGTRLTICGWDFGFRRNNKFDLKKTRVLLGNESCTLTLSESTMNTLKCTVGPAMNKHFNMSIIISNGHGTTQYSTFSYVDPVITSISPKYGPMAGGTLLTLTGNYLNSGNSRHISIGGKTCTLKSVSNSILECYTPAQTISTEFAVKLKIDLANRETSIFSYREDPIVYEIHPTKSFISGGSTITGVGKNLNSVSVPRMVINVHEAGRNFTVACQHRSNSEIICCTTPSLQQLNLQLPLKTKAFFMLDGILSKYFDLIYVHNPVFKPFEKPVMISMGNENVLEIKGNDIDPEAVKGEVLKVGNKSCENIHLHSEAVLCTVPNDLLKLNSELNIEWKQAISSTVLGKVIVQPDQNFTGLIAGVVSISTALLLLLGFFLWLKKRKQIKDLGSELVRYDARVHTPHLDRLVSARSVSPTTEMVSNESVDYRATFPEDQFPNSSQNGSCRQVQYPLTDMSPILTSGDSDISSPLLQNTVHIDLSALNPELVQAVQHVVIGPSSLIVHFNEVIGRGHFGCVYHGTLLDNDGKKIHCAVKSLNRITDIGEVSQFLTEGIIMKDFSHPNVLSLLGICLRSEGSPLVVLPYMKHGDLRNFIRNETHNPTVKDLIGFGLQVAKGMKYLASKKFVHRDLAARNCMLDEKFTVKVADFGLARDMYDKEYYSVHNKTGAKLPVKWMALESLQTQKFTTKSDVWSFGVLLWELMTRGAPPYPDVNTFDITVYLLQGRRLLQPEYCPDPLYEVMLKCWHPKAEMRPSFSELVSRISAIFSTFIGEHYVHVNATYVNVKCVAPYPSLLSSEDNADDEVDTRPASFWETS

[3] = Toxicity in KM mouse assessed as mouse survival at 720 mg/kg, po administered as single dose measured daily for 14 days (reference value: 100%); type: organism-based; details: in vivo
[4] = Cmax in Sprague-Dawley rat at 20 mg/kg, po measured after 5 mins to 4 hrs post dose by LC-MS/MS method; type: ADME, organism-based; design: dose 20 mg/kg, route oral; details: in vivo
Mus musculus [5] = experiment: Toxicity in KM mouse assessed as mouse mortality at 420 mg/kg, po administered as single dose measured daily for 14 days; type: organism-based; details: in vivo, 336 h
[6] = Toxicity in KM mouse assessed as mouse survival at 820 mg/kg, po administered as single dose measured daily for 14 days (reference value: 100%); type: organism-based; details: in vivo
[7] = AUC (0 to infinity) in Sprague-Dawley rat at 20 mg/kg, po measured after 5 mins to 4 hrs post dose by LC-MS/MS method; type: ADME, organism-based; design: dose 20 mg/kg, time infinity, route oral; details: in vivo
[8] = Apparent clearance during terminal phase in Sprague-Dawley rat at 20 mg/kg, po measured after 5 mins to 4 hrs post dose by LC-MS/MS method; type: ADME, organism-based; details: in vivo, read-out: CLz/F (converted)
[9] = AUC (0 to t) in Sprague-Dawley rat at 20 mg/kg, po measured after 5 mins to 4 hrs post dose by LC-MS/MS method; type: ADME, organism-based; design: time 0.083-4 hr, dose 20 mg/kg, route oral; details: in vivo
[10] = Toxicity in KM mouse assessed as mouse survival at 420 mg/kg, po administered as single dose measured daily for 14 days (reference value: 100%); type: organism-based; details: in vivo
Mus musculus [11] = experiment: Toxicity in KM mouse assessed as mouse mortality at 520 mg/kg, po administered as single dose measured daily for 14 days; type: organism-based; details: in vivo, 336 h
Mus musculus [12] = experiment: Toxicity in KM mouse assessed as mouse mortality at 620 mg/kg, po administered as single dose measured daily for 14 days; type: organism-based; details: in vivo, 336 h
[13] = MRT (0 to t) in Sprague-Dawley rat at 20 mg/kg, po measured after 5 mins to 4 hrs post dose by LC-MS/MS method; type: ADME, organism-based; details: in vivo
[14] = Elimination half life in Sprague-Dawley rat at 20 mg/kg, po measured after 5 mins to 4 hrs post dose by LC-MS/MS method; type: ADME, organism-based; details: in vivo, read-out: beta t1/2 (converted)
[15] = target: Proto-oncogene tyrosine-protein kinase receptor Ret (Homo sapiens, UniProt P07949); experiment: Inhibition of RET (unknown origin)
Chain of Proto-oncogene tyrosine-protein kinase receptor Ret (P07949 whole entry): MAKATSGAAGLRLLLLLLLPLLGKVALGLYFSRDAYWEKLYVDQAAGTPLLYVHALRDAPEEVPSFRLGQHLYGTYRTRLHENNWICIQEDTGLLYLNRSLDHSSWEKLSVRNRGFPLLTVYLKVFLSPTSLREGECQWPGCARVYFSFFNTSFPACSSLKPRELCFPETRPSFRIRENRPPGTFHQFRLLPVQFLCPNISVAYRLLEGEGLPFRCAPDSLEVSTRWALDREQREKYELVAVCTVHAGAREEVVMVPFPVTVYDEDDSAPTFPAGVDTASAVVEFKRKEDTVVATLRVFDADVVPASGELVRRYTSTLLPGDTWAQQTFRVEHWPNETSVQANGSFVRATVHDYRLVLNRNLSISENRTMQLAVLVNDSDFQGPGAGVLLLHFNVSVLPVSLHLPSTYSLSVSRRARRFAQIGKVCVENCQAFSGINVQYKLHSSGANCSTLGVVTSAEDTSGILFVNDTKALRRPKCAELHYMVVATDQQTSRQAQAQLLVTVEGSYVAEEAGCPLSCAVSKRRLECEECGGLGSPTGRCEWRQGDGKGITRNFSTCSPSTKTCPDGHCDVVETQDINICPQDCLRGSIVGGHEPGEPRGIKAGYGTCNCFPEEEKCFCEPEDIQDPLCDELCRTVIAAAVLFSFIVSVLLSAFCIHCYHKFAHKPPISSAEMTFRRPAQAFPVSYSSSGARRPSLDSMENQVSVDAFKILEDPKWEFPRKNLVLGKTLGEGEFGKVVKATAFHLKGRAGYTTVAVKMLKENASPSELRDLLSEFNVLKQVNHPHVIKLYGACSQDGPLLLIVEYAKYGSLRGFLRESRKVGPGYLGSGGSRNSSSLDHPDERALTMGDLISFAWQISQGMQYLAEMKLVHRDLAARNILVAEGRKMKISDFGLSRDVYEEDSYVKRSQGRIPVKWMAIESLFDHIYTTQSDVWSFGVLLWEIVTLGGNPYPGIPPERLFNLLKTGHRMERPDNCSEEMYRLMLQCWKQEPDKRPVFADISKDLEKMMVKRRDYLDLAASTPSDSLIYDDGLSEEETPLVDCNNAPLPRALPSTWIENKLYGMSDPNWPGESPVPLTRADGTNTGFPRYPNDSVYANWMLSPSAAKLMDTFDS

[16] = target: T1, Receptor-type tyrosine-protein kinase FLT3 (Homo sapiens, UniProt P36888); experiment: Inhibition of FLT3 (unknown origin)
T1 sequence (P36888 whole entry): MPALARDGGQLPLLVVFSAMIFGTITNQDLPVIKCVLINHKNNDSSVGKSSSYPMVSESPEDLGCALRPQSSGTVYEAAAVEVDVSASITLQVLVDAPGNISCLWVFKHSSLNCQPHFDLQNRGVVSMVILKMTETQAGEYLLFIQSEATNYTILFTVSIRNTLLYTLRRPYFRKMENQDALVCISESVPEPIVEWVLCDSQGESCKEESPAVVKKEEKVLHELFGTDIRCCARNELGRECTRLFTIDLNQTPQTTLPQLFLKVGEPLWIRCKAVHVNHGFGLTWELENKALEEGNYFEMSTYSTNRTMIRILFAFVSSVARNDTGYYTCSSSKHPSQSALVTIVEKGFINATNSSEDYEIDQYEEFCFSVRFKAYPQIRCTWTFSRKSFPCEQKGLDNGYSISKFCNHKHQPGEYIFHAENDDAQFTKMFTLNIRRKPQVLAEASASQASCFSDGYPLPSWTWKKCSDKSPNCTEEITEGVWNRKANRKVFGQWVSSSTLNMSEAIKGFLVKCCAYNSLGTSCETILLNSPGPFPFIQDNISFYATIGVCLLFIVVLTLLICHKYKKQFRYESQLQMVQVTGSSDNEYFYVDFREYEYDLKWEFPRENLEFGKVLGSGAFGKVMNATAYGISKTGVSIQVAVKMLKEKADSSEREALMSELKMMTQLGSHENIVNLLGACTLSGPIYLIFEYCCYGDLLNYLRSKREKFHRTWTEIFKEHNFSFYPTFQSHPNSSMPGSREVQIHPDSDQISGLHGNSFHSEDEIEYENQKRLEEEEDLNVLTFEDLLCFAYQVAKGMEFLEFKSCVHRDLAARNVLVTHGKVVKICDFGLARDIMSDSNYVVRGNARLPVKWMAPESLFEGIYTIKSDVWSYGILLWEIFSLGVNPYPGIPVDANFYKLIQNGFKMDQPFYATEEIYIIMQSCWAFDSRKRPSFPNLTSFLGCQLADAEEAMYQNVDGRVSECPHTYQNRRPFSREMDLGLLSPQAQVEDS

Rattus norvegicus [17] = experiment: Apparent clearance during terminal phase in Sprague-Dawley rat at 4 mg/kg, iv measured after 5 mins to 4 hrs post dose by LC-MS/MS method; type: ADME, organism-based; details: in vivo
CAKI-1 [18] = experiment: Antitumor activity in human Caki1 cells xenografted in nude mouse assessed as inhibition of tumor growth at 20 mg/kg, ig qd for 21 days; type: functional; details: CAKI-1, po, 504 h, read-out: TGI
Rattus norvegicus [19] = experiment: Apparent volume of distribution during terminal phase in Sprague-Dawley rat at 4 mg/kg, iv measured after 5 mins to 4 hrs post dose by LC-MS/MS method; type: ADME, organism-based; details: in vivo
[20] = Toxicity in KM mouse assessed as mouse survival at 920 mg/kg, po administered as single dose measured daily for 14 days (reference value: 100%); type: organism-based; details: in vivo
[21] = Toxicity in KM mouse assessed as mouse survival at 520 mg/kg, po administered as single dose measured daily for 14 days (reference value: 100%); type: organism-based; details: in vivo
[22] = Toxicity in KM mouse assessed as mouse survival at 620 mg/kg, po administered as single dose measured daily for 14 days (reference value: 100%); type: organism-based; details: in vivo
[23] = AUC (0 to t) in Sprague-Dawley rat at 4 mg/kg, iv measured after 5 mins to 4 hrs post dose by LC-MS/MS method; type: ADME, organism-based; design: time 0.083-4 hr, dose 4 mg/kg, route intravenous; details: in vivo
[24] = MRT (0 to t) in Sprague-Dawley rat at 4 mg/kg, iv measured after 5 mins to 4 hrs post dose by LC-MS/MS method; type: ADME, organism-based; details: in vivo
CAKI-1 [25] = experiment: Antitumor activity in human Caki1 cells xenografted in nude mouse assessed as inhibition of tumor growth at 40 mg/kg, ig qd for 21 days; type: functional; details: CAKI-1, po, 504 h, read-out: TGI
[26] = AUC (0 to infinity) in Sprague-Dawley rat at 4 mg/kg, iv measured after 5 mins to 4 hrs post dose by LC-MS/MS method; type: ADME, organism-based; design: dose 4 mg/kg, time infinity, route intravenous; details: in vivo
CAKI-1 [27] = experiment: Antitumor activity in human Caki1 cells xenografted in nude mouse assessed as inhibition of tumor growth at 80 mg/kg, ig qd for 21 days; type: functional; details: CAKI-1, po, 504 h, read-out: TGI
[28] = target: Vascular endothelial growth factor receptor 2 (Homo sapiens, UniProt P35968); experiment: Inhibition of VEGFR2 (unknown origin)
[29] = Tmax in Sprague-Dawley rat at 20 mg/kg, po measured after 5 mins to 4 hrs post dose by LC-MS/MS method; type: ADME, organism-based; details: in vivo
[30] = target: Epidermal growth factor receptor (Homo sapiens, UniProt P00533); experiment: Inhibition of EGFR (unknown origin)
Chain of Epidermal growth factor receptor (P00533 whole entry): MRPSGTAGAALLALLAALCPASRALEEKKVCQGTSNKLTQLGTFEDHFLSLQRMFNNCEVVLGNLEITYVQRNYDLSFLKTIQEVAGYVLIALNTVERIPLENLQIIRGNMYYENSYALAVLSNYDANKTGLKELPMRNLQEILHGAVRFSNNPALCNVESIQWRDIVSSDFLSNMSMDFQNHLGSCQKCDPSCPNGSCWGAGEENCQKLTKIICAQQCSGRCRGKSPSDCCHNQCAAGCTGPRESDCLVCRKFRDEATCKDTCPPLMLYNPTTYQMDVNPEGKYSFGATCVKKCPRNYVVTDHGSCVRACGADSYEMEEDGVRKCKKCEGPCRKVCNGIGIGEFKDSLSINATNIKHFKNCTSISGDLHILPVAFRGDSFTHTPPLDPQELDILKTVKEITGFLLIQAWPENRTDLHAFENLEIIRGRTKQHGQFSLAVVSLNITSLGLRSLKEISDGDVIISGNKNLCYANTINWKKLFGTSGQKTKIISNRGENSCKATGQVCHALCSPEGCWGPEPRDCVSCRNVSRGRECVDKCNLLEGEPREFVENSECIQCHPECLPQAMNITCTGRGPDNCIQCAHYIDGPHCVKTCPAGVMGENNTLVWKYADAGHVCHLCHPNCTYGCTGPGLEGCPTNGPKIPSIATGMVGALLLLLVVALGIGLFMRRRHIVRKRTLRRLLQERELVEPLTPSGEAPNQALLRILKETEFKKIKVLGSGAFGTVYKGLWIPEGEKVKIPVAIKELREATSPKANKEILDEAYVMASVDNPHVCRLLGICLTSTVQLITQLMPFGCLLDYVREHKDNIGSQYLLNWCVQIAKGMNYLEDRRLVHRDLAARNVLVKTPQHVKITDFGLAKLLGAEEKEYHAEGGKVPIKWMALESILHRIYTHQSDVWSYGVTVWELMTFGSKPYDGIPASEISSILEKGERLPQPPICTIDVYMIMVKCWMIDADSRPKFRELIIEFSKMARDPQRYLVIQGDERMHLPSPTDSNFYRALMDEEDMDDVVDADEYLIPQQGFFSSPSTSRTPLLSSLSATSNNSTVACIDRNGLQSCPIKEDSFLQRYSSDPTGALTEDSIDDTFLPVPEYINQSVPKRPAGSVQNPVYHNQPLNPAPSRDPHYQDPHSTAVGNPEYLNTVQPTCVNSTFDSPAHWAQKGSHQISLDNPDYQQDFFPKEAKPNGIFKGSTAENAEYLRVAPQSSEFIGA

[31] = Oral bioavailability in Sprague-Dawley rat at 20 mg/kg measured after 5 mins to 4 hrs post dose by LC-MS/MS method; type: ADME, organism-based; details: in vivo
[32] = target: Mast/stem cell growth factor receptor Kit (Homo sapiens, UniProt P10721); experiment: Inhibition of cKIT (unknown origin)
Chain of Mast/stem cell growth factor receptor Kit (P10721 whole entry): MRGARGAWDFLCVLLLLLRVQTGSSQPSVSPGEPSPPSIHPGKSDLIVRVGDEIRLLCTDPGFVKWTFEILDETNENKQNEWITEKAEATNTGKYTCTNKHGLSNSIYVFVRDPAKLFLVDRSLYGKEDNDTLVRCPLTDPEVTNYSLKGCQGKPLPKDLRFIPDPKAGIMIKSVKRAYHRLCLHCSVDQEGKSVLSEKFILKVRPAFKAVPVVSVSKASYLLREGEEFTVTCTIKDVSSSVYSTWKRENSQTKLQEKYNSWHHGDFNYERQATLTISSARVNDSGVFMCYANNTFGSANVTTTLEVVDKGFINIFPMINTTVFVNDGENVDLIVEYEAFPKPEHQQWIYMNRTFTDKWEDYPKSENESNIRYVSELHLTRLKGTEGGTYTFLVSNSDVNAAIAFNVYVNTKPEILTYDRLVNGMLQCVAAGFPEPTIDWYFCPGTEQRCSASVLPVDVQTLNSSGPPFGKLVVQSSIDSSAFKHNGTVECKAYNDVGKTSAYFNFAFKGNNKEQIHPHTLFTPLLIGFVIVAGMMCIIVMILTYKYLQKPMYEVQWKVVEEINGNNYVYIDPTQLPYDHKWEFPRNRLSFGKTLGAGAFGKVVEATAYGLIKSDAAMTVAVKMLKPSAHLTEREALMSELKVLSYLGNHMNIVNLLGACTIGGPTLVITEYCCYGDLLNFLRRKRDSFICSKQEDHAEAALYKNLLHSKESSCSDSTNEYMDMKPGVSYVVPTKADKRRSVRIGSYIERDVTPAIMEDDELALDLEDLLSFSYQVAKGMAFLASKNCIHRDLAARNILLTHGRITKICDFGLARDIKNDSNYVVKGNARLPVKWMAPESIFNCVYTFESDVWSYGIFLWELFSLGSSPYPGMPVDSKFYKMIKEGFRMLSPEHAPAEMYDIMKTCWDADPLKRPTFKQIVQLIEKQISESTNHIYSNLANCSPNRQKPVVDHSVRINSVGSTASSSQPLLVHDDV

[33] = Cmax in Sprague-Dawley rat at 4 mg/kg, iv measured after 5 mins to 4 hrs post dose by LC-MS/MS method; type: ADME, organism-based; design: dose 4 mg/kg, route intravenous; details: in vivo
[34] = Apparent volume of distribution during terminal phase in Sprague-Dawley rat at 20 mg/kg, po measured after 5 mins to 4 hrs post dose by LC-MS/MS method; type: ADME, organism-based; details: in vivo, read-out: Vz/F
[35] = target: Voltage-gated inwardly rectifying potassium channel KCNH2 (Homo sapiens, UniProt Q12809); experiment: Inhibition of human ERG at holding potential of -80 mV by cell based automated Qpatch method
Mus musculus [36] = experiment: Toxicity in human Caki1 cells xenografted nude mouse assessed as drug tolerance at 20 to 80 mg/kg, ig qd for 21 days; type: organism-based; details: in vivo, po, 504 h
[37] = Elimination half life in Sprague-Dawley rat at 4 mg/kg, iv measured after 5 mins to 4 hrs post dose by LC-MS/MS method; type: ADME, organism-based; details: in vivo, read-out: beta t1/2 (converted)

COc1cc2c(cc1OC)Nc1ncnc(Oc3ccc(NC(=O)C4(C(=O)Nc5ccc(F)cc5)CC4)cc3)c1N=C2
IC50 (CAKI-1 [1]): 1480 nM
IC50 (HepG2): 2070 nM
IC50 (PC-3): 1420 nM
IC50 (PANC-1): 2720 nM

COc1cc2c(cc1OC)Nc1ncnc(Oc3ccc(NC(=O)C4(C(=O)Nc5ccc(F)cc5)CC4)cc3F)c1N(C)C2
IC50 [2]: > 1000 nM

COc1cc2c(cc1OC)C(=O)Nc1c(Oc3ccc(NC(=O)C4(C(=O)Nc5ccc(F)cc5)CC4)cc3)ccnc1N2
IC50 [2]: > 1000 nM

Cc1nc(Oc2ccc(NC(=O)C3(C(=O)Nc4ccc(F)cc4)CC3)cc2)c2c(n1)Oc1ccccc1C=N2
IC50 [2]: > 1000 nM

O=C(Nc1ccc(F)cc1)C1(C(=O)Nc2ccc(Oc3ncnc4c3N=Cc3ccccc3O4)cc2)CC1
IC50 [2]: > 1000 nM

O=C(Nc1ccc(F)cc1)C1(C(=O)Nc2ccc(Oc3ncnc4c3NCc3ccccc3O4)cc2)CC1
IC50 [2]: > 1000 nM

COc1cc2c(cc1OC)Nc1ncnc(Oc3ccc(NC(=O)C4(C(=O)Nc5ccc(F)cc5)CC4)cc3F)c1NC2
IC50 (CAKI-1 [1]): 748 nM
survival at 336 h [3]: 80%
Cmax [4]: 1930 ng/mL
Activity (Mus musculus [5]): Non-Toxic
survival at 336 h [6]: 60%
AUC(0-inf) [7]: 7080 ng·h/mL
CL/F [8]: 48.8 mL/min/kg
AUC(0-t) [9]: 6990 ng·h/mL
survival at 336 h [10]: 100%
Activity (Mus musculus [11]): Non-Toxic
Activity (Mus musculus [12]): Non-Toxic
IC50 (HepG2): 2950 nM
MRT last [13]: 2.36 h
half-life [14]: 1.09 h
IC50 [15]: 163 nM
IC50 [16]: 852 nM
IC50 (PC-3): 4100 nM
CLz/F (Rattus norvegicus [17]): 19 mL/min/kg
inhibition in vivo at 20 mg/kg (CAKI-1 [18]): 51.1%
Vz/F (Rattus norvegicus [19]): 1.48 L/kg
survival at 336 h [20]: 40%
survival at 336 h [21]: 100%
survival at 336 h [22]: 100%
IC50 (PANC-1): 1860 nM
AUC(0-t) [23]: 3590 ng·h/mL
MRT last [24]: 1 h
inhibition in vivo at 40 mg/kg (CAKI-1 [25]): 58.9%
AUC(0-inf) [26]: 3590 ng·h/mL
inhibition in vivo at 80 mg/kg (CAKI-1 [27]): 64.5%
IC50 [2]: 24.4 nM
IC50 [28]: 62.5 nM
Tmax [29]: 1.67 h
IC50 [30]: 268 nM
bioavailability [31]: 39%
IC50 [32]: 259 nM
Cmax [33]: 4660 ng/mL
Vd/F [34]: 4.52 L/kg
IC50 [35]: > 40000 nM
Activity (Mus musculus [36]): Non-Toxic
half-life [37]: 0.91 h

COc1ccc2c(c1)CNc1c(nc(C)nc1Oc1ccc(NC(=O)C3(C(=O)Nc4ccc(F)cc4)CC3)cc1)N2
IC50 [2]: > 1000 nM

COc1cc2c(cc1OC)C(=O)Nc1c(ncnc1Oc1ccc(NC(=O)C3(C(=O)Nc4ccc(F)cc4)CC3)cc1)N2
IC50 [2]: > 1000 nM

COc1cc2c(cc1OC)C(=O)Nc1c(Oc3ccc(NC(=O)C4(C(=O)Nc5ccc(F)cc5)CC4)cc3F)ccnc1N2
IC50 [2]: > 1000 nM
